The assay deals with PDE 4 enzyme. Description: PDE 4 enzyme inhibition (Scintillation Proximity Assay, enzyme purified from human polymorphonuclear leukocytes). It counts as biochemical. The settings on record: PDE 4 from human PMNs; SPA, [3H]cAMP, 40 minutes at 30° C.; read-out: IC50 (concentration required to inhibit cyclic nucleotide hydrolysis by 50%). How it is done:
Human polymorphonuclear leukocyte isolation
The polymorphonuclear leukocytes (PMNs) were isolated from peripheral blood of healthy volunteers according to Boyum A. (Scand. J. Immunol., 1976, 5th suppl., 9). Briefly, the PMNs were purified by Ficoll-Paque gradient centrifugation followed by sedimentation on dextran and the erythrocyte contamination was eliminated by hypotonic lysis.
PDE 4 enzyme purification
The human PMNs were suspended in TRIS/HCl buffer (10 mM, pH 7.8) containing MgCl2 (5 mM), EGTA (4 mM), mercaptoethanol (5 mM), TRITON-X100 (1%), pepstatin A (1 μM), PMSF (100 μM) and leupeptin (1 μM), and homogenised by Polytron homogeniser. The homogenate was centrifuged at 25,000×g for 30 minutes at 4° C. and the PDE 4 enzyme was purified by ion exchange chromatography using the FPLC technique according to Schudt C. et al. (Naunyn-Schmidberg's Arch. Pharmacol., 1991, 334, 682). The supernatant was seeded on a UNO Q12 column (Bio-Rad) and the enzyme was eluted by sodium acetate linear gradient from 50 mM to 1M using a flow rate of 4.5 ml/minutes. […]
The enzyme activity was evaluated with a Scintillation Proximity Assay (SPA) kit (Amersham). […]
SPA beads (50 μl) containing 18 mM zinc sulphate were added to stop the reaction and after 20 minutes at room temperature the radioactivity was measured using a scintillation counter. […]

Turning to `CS(=O)(=O)N1Cc2c(ccc(OC(F)F)c2OC2CCCO2)C(Cc2c(Cl)cncc2Cl)=N1` (stereo not shown) [Compound 10, 1-(3,5-dichloro-pyridin-4-ylmethyl)-3-methansulphonyl-6-difluoromethoxy-5-(tetrahydro-furan-2-yloxy)-4H-phthalazine], the IC50 amounted to 8 ± 0.5 nM.

Source of the values: patent publication US6340684B1, “Phthalazine derivatives as phosphodiesterase 4 inhibitors” (Zambon Group S.p.A., priority 1998, dated 2002).
